# Assay results taken from ChEMBL document CHEMBL1201862, “PubChem BioAssay data set” (2004).
# Active and inactive are the calls of the source.
# Legend:
# [1] = biological target: Glyceraldehyde-3-phosphate dehydrogenase (Homo sapiens, UniProt P04406)
# [2] = biological target: T1, Alkaline phosphatase, tissue-nonspecific isozyme (Homo sapiens, UniProt P05186); assay: human TNAP enzyme inhibitors, SAR follow-up, biochemical, luminescent, dose response (AID 1056)
# T1 sequence (P05186 whole entry): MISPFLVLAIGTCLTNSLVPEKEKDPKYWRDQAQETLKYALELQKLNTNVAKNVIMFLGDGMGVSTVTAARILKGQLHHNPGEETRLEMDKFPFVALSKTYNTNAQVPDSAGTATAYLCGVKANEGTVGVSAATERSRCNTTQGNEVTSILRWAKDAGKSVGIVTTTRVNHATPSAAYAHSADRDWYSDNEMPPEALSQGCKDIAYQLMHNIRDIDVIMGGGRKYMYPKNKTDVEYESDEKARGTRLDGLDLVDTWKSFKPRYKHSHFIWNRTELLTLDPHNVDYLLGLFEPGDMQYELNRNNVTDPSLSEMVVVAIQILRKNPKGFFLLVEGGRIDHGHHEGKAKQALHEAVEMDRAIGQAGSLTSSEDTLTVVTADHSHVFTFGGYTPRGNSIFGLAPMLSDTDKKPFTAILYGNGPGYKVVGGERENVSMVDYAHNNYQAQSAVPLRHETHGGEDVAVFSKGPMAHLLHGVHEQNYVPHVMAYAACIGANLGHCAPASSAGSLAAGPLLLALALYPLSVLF
# [3] = biological target: Alkaline phosphatase, placental type (Homo sapiens, UniProt P05187); assay: PLAP enzyme inhibitors, confirmation, biochemical, luminescence (AID 1512); type: functional
# Chain of Alkaline phosphatase, placental type (P05187 whole entry): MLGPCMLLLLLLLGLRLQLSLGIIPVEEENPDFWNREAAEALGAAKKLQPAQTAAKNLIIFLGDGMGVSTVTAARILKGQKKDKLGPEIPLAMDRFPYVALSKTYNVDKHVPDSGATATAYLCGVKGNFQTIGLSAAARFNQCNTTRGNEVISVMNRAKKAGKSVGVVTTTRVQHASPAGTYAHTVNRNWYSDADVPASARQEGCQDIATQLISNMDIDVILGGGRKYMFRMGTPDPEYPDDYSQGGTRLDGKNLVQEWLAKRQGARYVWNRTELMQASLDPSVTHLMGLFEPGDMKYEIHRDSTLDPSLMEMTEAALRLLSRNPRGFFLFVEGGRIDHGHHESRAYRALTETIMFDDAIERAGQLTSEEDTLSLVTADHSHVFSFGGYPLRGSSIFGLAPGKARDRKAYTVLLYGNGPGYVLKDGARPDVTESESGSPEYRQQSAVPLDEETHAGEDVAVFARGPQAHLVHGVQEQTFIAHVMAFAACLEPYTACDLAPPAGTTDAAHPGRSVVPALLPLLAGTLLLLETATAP
# [4] = biological target: Voltage-dependent T-type calcium channel subunit alpha-1H (Homo sapiens, UniProt O95180); type: functional;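 also: channel activity triggered by adding a high calcium stimulation buffer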
# Chain of Voltage-dependent T-type calcium channel subunit alpha-1H (O95180 whole entry): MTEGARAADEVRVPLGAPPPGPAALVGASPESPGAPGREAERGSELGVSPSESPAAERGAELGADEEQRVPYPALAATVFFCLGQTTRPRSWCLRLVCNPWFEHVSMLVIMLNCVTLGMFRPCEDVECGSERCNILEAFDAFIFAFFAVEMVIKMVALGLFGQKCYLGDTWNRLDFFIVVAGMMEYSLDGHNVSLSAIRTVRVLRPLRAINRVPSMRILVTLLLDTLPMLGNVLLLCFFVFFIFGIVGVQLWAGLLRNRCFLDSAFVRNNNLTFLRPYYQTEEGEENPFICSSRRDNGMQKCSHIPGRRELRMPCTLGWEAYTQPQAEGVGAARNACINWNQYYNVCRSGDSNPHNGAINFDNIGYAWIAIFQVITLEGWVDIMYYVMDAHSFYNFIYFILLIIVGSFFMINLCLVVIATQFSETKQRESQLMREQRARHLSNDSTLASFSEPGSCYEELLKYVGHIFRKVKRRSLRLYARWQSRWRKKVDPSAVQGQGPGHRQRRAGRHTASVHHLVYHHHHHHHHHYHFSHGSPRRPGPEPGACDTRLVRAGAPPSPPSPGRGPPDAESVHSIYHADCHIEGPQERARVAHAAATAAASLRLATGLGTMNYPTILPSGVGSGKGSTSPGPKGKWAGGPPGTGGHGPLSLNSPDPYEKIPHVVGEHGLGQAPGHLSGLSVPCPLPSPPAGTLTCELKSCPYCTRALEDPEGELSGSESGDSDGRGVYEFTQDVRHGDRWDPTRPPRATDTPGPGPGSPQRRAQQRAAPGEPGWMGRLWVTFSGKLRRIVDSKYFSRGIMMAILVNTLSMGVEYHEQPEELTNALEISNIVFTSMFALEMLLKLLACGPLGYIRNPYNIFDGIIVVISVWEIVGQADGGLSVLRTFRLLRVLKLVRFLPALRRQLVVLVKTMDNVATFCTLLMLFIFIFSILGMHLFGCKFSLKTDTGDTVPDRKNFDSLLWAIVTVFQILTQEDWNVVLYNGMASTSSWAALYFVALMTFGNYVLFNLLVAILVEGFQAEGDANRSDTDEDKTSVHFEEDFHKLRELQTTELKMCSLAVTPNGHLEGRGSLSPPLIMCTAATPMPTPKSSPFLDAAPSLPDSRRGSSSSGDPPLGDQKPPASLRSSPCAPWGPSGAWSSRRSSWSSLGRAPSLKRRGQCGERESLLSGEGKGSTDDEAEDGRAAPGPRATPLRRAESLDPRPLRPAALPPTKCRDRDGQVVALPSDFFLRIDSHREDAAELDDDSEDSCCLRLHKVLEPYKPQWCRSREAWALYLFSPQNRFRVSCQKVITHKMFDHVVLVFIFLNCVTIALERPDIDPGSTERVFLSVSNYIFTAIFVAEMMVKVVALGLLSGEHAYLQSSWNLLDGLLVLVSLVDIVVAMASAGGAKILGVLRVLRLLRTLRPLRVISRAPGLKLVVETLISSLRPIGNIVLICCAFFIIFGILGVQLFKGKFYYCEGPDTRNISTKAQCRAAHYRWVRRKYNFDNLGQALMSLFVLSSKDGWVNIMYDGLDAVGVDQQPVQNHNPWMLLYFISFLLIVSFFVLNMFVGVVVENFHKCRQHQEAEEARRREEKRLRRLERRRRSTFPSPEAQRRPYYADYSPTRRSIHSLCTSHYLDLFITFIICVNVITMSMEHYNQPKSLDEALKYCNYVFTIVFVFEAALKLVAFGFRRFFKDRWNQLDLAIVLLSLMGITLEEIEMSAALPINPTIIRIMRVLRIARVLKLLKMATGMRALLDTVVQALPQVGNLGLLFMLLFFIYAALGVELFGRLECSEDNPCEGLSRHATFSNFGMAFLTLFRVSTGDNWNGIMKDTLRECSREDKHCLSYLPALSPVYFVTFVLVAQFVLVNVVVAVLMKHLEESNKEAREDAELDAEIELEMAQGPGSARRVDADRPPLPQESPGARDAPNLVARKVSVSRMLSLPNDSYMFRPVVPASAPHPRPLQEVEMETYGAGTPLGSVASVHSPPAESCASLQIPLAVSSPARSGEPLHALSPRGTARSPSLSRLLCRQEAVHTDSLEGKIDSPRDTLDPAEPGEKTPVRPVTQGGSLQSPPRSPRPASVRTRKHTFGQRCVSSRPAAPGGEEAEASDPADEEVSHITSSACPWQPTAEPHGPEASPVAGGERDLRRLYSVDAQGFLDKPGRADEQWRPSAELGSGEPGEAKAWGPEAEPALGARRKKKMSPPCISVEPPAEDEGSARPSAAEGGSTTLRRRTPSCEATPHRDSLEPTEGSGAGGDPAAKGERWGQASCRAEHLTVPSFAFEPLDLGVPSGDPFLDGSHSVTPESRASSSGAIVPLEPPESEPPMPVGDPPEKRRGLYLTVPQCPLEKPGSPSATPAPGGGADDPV
# Vero = assay: cells; type: functional; conditions: Chlorocebus sabaeus
# [5] = biological target: T2, Short transient receptor potential channel 4 (Mus musculus, UniProt Q9QUQ5); assay: mouse TRPC4 channel activators, dose response, cell-based, HEK293 TRPC4/mu-opioid, Fluo-4 calcium (AID 434937); type: functional
# T2 sequence (Q9QUQ5 whole entry): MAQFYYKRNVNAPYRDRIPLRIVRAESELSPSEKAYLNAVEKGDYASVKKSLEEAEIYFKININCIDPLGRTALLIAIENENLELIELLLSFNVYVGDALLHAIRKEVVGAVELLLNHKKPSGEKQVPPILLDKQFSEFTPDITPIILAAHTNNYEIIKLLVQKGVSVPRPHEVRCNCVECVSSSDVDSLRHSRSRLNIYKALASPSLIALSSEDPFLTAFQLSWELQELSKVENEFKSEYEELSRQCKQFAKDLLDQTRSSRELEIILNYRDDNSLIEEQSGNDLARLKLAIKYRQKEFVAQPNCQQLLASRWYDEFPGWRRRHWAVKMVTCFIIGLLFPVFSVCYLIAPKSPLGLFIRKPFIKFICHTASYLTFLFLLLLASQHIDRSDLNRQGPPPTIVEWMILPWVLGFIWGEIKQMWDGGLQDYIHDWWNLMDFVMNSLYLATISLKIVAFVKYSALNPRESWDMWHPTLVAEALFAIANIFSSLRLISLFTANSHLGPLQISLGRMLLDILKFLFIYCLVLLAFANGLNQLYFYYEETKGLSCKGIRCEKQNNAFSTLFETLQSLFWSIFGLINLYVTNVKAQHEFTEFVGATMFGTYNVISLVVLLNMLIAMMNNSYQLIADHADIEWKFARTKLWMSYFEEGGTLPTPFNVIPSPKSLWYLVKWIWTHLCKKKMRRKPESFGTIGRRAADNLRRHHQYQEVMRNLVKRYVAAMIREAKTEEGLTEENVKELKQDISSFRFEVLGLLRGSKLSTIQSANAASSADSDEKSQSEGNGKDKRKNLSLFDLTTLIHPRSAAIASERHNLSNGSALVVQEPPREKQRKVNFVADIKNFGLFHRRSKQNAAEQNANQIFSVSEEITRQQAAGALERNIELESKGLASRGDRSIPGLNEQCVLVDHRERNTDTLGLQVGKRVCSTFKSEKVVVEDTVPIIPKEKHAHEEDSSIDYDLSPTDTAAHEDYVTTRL
# [6] = biological target: DNA dC->dU-editing enzyme APOBEC-3G (Homo sapiens, UniProt Q9HC16); assay: Dose Response confirmation of small molecule APOBEC3G DNA Deaminase Inhibitors via a fluorescence-based single-stranded DNA deaminase assay. [Related pubchem assays (depositor defined):AID493012, AID493028]; type: functional
# Chain of DNA dC->dU-editing enzyme APOBEC-3G (Q9HC16 whole entry): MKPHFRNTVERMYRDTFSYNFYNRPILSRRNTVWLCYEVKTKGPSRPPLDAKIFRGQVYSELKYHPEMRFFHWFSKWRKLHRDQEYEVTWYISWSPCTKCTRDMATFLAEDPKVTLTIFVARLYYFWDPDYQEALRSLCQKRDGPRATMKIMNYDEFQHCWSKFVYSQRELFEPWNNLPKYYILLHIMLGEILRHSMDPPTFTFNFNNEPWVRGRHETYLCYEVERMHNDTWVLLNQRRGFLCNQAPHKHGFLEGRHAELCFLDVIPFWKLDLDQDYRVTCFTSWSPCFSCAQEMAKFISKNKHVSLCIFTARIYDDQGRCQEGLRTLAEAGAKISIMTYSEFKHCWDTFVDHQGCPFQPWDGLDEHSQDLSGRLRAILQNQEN
# [7] = cytotoxicity toward NIH3T3 fibroblasts, dose response, counter-screen, cell-based, ATP luminescence, mouse fibroblasts (AID 2010); type: functional;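 also: cells exposed to compound for about 90 hours before reading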
# [8] = inhibitors of intracellular T. cruzi replication, confirmation, NIH3T3 host cells, beta-gal luminescence (AID 2044); type: functional, cell-based;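 also: intracellular parasites grown in NIH/3T3 mouse fibroblasts as host cells; luminescent beta-galactosidase reporter signal from transgenic T. cruzi replicating inside host cells; inhibitors lower the luminescence signal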
# cells = type: functional
# [9] = Vero E6 cell cytotoxicity, dose response, cytotoxicity control for non-replicating M. tuberculosis project, secondary assay (AID 492998); type: functional, VeroE6; conditions: Vero C1008
# [10] = HepG2 cell cytotoxicity, dose response, cytotoxicity control for non-replicating M. tuberculosis project (AID 489018); type: functional; conditions: Mycobacterium tuberculosis
# [11] = microbe, parasite or virus in culture; type: functional; conditions: Mycobacterium tuberculosis
# [12] = THP-1 cell cytotoxicity, dose response, cytotoxicity control for non-replicating M. tuberculosis project (AID 489025); type: functional
# BJ [13] = assay: cytotoxicity toward BJ-TERT fibroblasts, dose response, cell-based, RAS-independent, luminescence (AID 1933); type: functional; conditions: Homo sapiens
# [14] = biological target: T3, Replicative DNA helicase DnaB (Mycobacterium tuberculosis, UniProt P9WMR3); assay: DnaB intein splicing inhibitors, dose response, biochemical, cell-free fluorescence (AID 449749); type: functional
# T3 sequence (P9WMR3 whole entry): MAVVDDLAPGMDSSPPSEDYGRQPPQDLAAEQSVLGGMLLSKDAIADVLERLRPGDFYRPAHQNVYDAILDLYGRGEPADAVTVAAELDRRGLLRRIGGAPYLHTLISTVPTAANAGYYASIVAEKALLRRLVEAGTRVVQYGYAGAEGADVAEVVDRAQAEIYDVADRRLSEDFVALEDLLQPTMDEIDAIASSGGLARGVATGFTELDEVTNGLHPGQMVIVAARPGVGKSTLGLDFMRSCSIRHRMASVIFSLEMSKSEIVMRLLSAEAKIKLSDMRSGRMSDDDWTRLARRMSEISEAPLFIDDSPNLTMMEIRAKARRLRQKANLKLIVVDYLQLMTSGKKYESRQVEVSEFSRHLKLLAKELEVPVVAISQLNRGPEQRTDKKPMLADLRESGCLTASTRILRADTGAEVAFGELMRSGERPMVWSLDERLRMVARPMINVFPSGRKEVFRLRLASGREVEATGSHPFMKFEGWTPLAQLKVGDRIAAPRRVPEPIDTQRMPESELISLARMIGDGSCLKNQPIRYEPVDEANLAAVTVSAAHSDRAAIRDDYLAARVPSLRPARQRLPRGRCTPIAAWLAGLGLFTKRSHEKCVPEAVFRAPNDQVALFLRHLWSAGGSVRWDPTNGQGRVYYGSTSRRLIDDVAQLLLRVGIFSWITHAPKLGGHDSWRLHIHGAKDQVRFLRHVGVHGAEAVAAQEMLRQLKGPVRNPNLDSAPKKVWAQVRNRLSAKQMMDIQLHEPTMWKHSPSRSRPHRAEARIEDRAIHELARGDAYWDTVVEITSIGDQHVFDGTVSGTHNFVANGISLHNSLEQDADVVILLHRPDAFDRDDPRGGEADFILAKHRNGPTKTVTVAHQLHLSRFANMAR
# [15] = Luminescence Cell-Based Dose Response HTS to Identify Inhibitors of 5'UTR Stem-Loop Driven Prion Protein mRNA Translation in H4 Neuroglioblastoma Cells. [Related pubchem assays: 1827 (Project Summary), 1813 (Primary HTS)]; type: functional
# INS1 = assay: beta cell apoptosis inhibitors, cytokine rescue, dose response, luminescence, retest (AID 449756); type: functional, cell-based; conditions: Rattus norvegicus;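 also: cell death triggered by IL-1 beta plus TNF-alpha plus IFN-gamma mixture; protective hits raise ATP signal compared with cytokine alone wells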
# [16] = cytotoxicity toward DRD oncogenic fibroblasts, dose response, cell-based, non-viral oncogenic, luminescence (AID 1934); type: functional; conditions: Homo sapiens
# Paired box protein Pax-8 = Paired box protein Pax-8 (Homo sapiens, UniProt Q06710); assay: inhibitors of PAX8-driven TPO luciferase reporter, dose response, RMG-I cells, cherry-pick (AID 687027); type: functional, cell-based;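 also: luciferase reporter driven by Pax8 target thyroperoxidase promoter measured by SteadyGlo luminescence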
# Chain of Paired box protein Pax-8 (Q06710 whole entry): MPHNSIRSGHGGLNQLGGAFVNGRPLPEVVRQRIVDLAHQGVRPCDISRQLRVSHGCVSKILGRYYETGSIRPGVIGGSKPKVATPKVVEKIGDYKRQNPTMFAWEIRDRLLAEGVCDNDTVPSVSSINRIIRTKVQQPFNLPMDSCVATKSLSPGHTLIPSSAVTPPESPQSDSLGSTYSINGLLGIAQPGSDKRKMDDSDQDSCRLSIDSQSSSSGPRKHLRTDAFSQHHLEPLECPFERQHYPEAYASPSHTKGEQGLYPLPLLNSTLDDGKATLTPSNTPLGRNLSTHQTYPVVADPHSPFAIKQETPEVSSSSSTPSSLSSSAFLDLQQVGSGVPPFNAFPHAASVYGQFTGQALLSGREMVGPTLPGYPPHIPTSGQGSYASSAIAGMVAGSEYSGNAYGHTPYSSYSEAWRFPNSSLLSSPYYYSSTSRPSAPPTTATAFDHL
# [17] = inhibitors of SNCA 5'UTR-driven reporter translation, confirmation, H4 neuroglioma cells, luminescence (AID 1988); type: functional, cell-based
# [18] = non-specific cell cytotoxicity, dose response, cytotoxicity control for PAX8 inhibitor project, plate reader, dry powder samples (AID 743021); type: functional, cell-based
# BJ [19] = assay: cytotoxicity toward Ras-transformed BJeLR fibroblasts, dose response, cell-based, alamar blue fluorescence, cherrypicked samples (AID 2631); type: functional; conditions: Homo sapiens;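 also: confirmatory dose-response assay in RAS-dependent BJ fibroblasts engineered with TERT, LT and ST, with cytotoxicity read by fluorescence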
# Protein RecA = biological target: T4, Protein RecA (Mycobacterium tuberculosis, UniProt P9WHJ3); assay: Fluorescence Cell-Free Homogeneous Dose Retest to Identify Inhibitors of RecA-Intein Splicing Activity. [Related pubchem assays (depositor defined):AID2097, AID2223, AID489010, AID492950]; type: functional
# T4 sequence (P9WHJ3 whole entry): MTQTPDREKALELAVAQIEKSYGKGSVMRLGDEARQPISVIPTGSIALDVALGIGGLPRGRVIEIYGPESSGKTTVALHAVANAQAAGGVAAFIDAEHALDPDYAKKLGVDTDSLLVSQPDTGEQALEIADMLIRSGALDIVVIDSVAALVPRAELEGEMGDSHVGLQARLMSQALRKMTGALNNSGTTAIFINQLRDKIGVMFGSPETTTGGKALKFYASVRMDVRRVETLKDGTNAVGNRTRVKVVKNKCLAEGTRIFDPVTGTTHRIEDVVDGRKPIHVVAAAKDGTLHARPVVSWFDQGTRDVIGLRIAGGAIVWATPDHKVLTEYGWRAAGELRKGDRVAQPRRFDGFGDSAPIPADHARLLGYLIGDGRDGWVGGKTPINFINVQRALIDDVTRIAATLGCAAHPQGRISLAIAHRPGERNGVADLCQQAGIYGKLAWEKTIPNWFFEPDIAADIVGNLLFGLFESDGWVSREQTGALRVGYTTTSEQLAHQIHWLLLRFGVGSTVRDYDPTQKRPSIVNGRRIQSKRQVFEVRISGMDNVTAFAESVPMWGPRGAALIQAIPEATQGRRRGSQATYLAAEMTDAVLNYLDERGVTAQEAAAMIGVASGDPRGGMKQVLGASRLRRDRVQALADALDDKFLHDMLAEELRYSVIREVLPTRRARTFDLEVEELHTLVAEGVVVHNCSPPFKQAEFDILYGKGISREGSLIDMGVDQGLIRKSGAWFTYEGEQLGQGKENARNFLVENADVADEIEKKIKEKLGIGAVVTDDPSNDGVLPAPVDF
# [20] = inhibitors of firefly luciferase expression or activity, dose response, H4 neuroglioma cells, luminescence (AID 1990); type: functional, cell-based
# [21] = Luminescence-based dose response cell-based high throughput screening assay for cytotoxic compounds using the IEC-6 intestinal epithelial cell line. [Related pubchem assays: 1858 (Summary AID.), 1825 (Counterscreen.), 1907 (Confirmation screen.)]; type: functional
# BJ [22] = assay: cells; type: functional, cell-based; conditions: Homo sapiens
# BJ [23] = assay: cytotoxicity toward BJ-TERT-LT-ST fibroblasts, dose response, cell-based, RAS-independent, luminescence (AID 1935); type: functional; conditions: Homo sapiens;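 also: BJ fibroblasts immortalized with TERT plus LT and ST oncogenes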
# Chain of Glyceraldehyde-3-phosphate dehydrogenase (P04406 whole entry): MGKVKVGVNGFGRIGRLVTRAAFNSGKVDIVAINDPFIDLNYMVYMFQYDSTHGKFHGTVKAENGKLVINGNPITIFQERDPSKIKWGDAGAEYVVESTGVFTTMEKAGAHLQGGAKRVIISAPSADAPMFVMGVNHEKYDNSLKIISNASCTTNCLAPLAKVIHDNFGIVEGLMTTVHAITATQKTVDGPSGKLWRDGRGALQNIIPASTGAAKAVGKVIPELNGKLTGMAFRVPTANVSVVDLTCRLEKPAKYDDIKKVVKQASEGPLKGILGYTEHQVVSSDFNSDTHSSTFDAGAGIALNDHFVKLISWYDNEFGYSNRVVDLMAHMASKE
structure (smiles),measurement,setting,value
O=C(c1cc(-c2cc(F)c(Cl)cc2Cl)n[nH]1)N1CCCCCC1,IC50,[1],> 100 µM (not active)
same,IC50,[2],> 100 µM (inactive)
same,IC50,[3],> 100 µM (inactive)
Cc1ccc(C(=O)Nc2ccc3c(c2)OCO3)cc1S(=O)(=O)N1CCCCC1,EC50,[4],4.78 µM (active)
Cc1ccc(C(=O)NNC(=S)NC(=O)COc2ccccc2)cc1,CC50,Vero,> 25 µM (active)
same,EC50,[5],1.5 µM (active)
same,IC50,[6],36.3 µM (active)
CN1CC=C(/C=C/c2ccc(-c3ccccc3)cc2)CC1,EC50,[7],8.86 µM (active)
same,EC50,[8],2.12 µM (active)
same,IC50,cells,26.6 µM (active)
same,CC50,[9],9.99 µM (active)
same,CC50,[10],12 µM (active)
same,CC50,[11],8.12 µM (active)
same,CC50,[12],23.7 µM (active)
Cc1cc(C)cc(NC(=S)N2CCN(c3ncc(C(F)(F)F)cc3Cl)CC2)c1,EC50,[5],2.66 µM (active)
COc1ccc(C2C(O)C(c3c[nH]c4ccccc34)=NN2C(=O)CCl)cc1 (stereo not drawn),EC50,BJ [13],0.622 µM (inconclusive)
same,AC50,[14],2.56 µM (active)
same,EC50,[15],11.1 µM (active)
same,AC50,INS1,2.19 µM (active)
same,EC50,[16],1.37 µM (inconclusive)
same,AC50,Paired box protein Pax-8,0.65 µM (active)
same,EC50,[17],8.2 µM (active)
same,AC50,[18],0.954 µM (active)
same,EC50,BJ [19],0.443 µM (active)
same,EC50,Protein RecA,0.582 µM (active)
same,EC50,[20],> 30 µM (not active)
same,IC50,[21],1.49 µM (active)
same,EC50,BJ [22],2.65 µM (inconclusive)
same,EC50,BJ [23],1.13 µM (inconclusive)
CCN(CCNC(=O)CS(=O)(=O)Cc1nc(-c2cccc(OC)c2)oc1C)c1ccccc1,EC50,[4],1.49 µM (active)
Cc1cc(Nc2ccccc2)n(-c2ccc(Br)cc2)n1,EC50,[4],2.24 µM (active)
O=C(CSc1nnc(-c2ccccc2Cl)[nH]1)c1ccc(O)c(O)c1,IC50,[1],> 100 µM (not active)
same,IC50,[2],1.36 µM (active)
same,IC50,[3],8.15 µM (active)
CC(/C=C\C=C\c1ccccc1)=N\NC(=O)c1cncc(Br)c1,IC50,cells,12 µM (active)
same,CC50,[10],> 20 µM (active)
same,CC50,[12],35 µM (active)
CCN1CCN(c2ccc(S(=O)(=O)N3CCCCC3)cc2NC(=O)COc2ccccc2)CC1,EC50,[7],> 60 µM (not active)
same,EC50,[8],1.01 µM (active)
same,EC50,[5],6.68 µM (active)
CC1(C)CC(=O)c2c(-c3cccc(Br)c3)n[nH]c2C1,IC50,[1],> 100 µM (not active)
same,IC50,[2],> 100 µM (inactive)
same,IC50,[3],> 100 µM (inactive)
